Data taken from patent US8691761B2, “Somatostatin receptor 2 antagonists” (priority 2006, dated 2014).
Bridge positions count the residues as written; N and C are the ends. Square brackets hold non-standard residues; d marks the D form. Peptide text beside a SMILES is read from it. * marks the point of attachment. dPhe(4-NHCONH2) = NC(=O)Nc1ccc(C[C@@H](N)C(=O)O)cc1; Phe(4-NHCONH2) = NC(=O)Nc1ccc(C[C@H](N)C(=O)O)cc1; Phe(4-Cl) = N[C@@H](Cc1ccc(Cl)cc1)C(=O)O; X1 = NC(=O)N[C@@H](Cc1ccc(Cl)cc1)C(=O)*; 2Nal = N[C@@H](Cc1ccc2ccccc2c1)C(=O)O

Experiments:
Test in all cases: Receptor autoradiography, displacement of 125I-[Leu8,D-Trp22,Tyr25]-SRIF-28 from membrane pellet sections
Format in all cases: binding
hSSTR1 = molecular target: T1, hSSTR1 (Homo sapiens, UniProt P30872); details: Table 3; mean ± SEM when N ≧ 3; read-out: sst1 binding affinity (IC50)
T1 construct: expressed in transfected cells; host or cells: CHO-K1 or CCL39 cells
T1 sequence (P30872 whole entry): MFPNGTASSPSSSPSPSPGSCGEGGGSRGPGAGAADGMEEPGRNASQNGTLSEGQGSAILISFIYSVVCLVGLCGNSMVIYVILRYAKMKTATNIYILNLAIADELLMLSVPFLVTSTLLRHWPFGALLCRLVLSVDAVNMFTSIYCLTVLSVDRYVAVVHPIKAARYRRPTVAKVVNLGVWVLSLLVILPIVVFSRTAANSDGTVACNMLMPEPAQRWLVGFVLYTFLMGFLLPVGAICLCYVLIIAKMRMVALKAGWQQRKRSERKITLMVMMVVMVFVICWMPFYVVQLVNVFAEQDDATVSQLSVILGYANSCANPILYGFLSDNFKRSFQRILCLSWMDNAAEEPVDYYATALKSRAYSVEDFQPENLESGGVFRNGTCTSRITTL
Procedure: (§1) Generally, recombinant cells expressing the receptor are washed and homogenized to prepare a crude protein homogenate in a suitable buffer. In a typical assay, an amount of protein from the cell homogenate is placed into a small volume of an appropriate assay buffer at an appropriate pH. Candidate substances, such as potential SRIF agonists and antagonists, are added to the admixture in convenient concentrations, and the interaction between the candidate substance and the receptor polypeptide is monitored.
(§2) In vitro Bioassay: The effects of the various somatostatin analogs were tested in vitro for their ability to bind to isolated cloned receptors expressed on CHO-K1 cells and CCL39 cells. The molecular cloning of the genes encoding multiple somatostatin receptor subtypes permitted the individual expression of these receptors in mammalian cells and the characterization of their respective pharmacological profiles.
(§3) CHO-K1 cells were grown in Ham's F-12 medium, and CCL39 cells were grown in Dulbecco's modified Eagle's medium/Ham's F-12(1:1) mix, supplemented with 10% fetal bovine serum, 100 U/ml penicillin and 100 μg/ml streptomycin, in humidified air containing 5% CO2 at 37° C. Cells were washed twice with and scraped into ice-cold 0.05 M Tris-HCl (pH 7.4), collected by centrifugation, and homogenized using a rotor/stator/system in the same buffer. After centrifugation at 120 g for 5 min at 4° C., the supernatant was collected and centrifuged again at 48,000 g for 30 min at 4° C. The resulting pellet was resuspended in ice-cold Tris buffer, transferred into a microfuge tube, and centrifuged at 20,000 g for 15 min at 4° C. After withdrawal of the supernatant, the membrane pellet was stored at −80° C.
(§4) Receptor autoradiography was performed on 20 μm thick cryostat sections of the membrane pellets, mounted on microscope slides, and then stored at −20° C. […] Increasing concentrations of the unlabeled peptide were used ranging from 0.1-1000 nM. […] IC50 values were calculated after quantification of the data using a computer-assisted image processing system as known in this art.
(§5) The numbers in parentheses indicate the number of times the particular binding test was carried out.
(§6) Receptor autoradiography. Cell membrane pellets were prepared as previously described, and stored at −80° C. Receptor autoradiography was performed on 20-μm thick cryostat (Microm HM 500, Walldorf, Germany) sections of the membrane pellets, mounted on microscope slides, and then stored at −20° C. […] After a brief dip in distilled water to remove excess salts, the sections were dried quickly and exposed for 1 week to Kodak BioMax MR film. IC50 values were calculated after quantification of the data using a computer-assisted image processing system as described previously. […] (Reubi, J. C. “In vitro identification of vasoactive intestinal peptide receptors in human tumors: Implications for tumor imaging.” J. Nucl. Med. 1995, 36, 1846-1853).
(§7) To investigate their ssts binding properties, the peptides were tested for their ability to bind to cryostat sections from membrane pellets of cells expressing the five human ssts (Table 3).

hSSTR2 = molecular target: T2, hSSTR2 (Homo sapiens, UniProt P30874); details: for IC50: Table 3, mean ± SEM when N ≧ 3, read-out: sst2 binding affinity (IC50)
T2 construct: expressed in transfected cells; host or cells: CHO-K1 or CCL39 cells
T2 sequence (P30874 whole entry): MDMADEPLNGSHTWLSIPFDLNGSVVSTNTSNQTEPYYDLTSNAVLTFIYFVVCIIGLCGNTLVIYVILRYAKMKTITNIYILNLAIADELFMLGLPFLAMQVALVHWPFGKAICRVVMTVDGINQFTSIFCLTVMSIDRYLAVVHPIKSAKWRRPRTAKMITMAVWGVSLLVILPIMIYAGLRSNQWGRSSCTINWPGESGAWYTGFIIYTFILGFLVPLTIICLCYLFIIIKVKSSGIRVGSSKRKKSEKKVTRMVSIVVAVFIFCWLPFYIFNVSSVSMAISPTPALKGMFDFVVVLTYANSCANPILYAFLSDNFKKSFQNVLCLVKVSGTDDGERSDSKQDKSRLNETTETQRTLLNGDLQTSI
Procedure: as §1, §2, §3, §4, §5, §6, §7

hSSTR3 = molecular target: T3, hSSTR3 (Homo sapiens, UniProt P32745); details: Table 3; mean ± SEM when N ≧ 3; read-out: sst3 binding affinity (IC50)
T3 construct: expressed in transfected cells; host or cells: CHO-K1 or CCL39 cells
T3 sequence (P32745 whole entry): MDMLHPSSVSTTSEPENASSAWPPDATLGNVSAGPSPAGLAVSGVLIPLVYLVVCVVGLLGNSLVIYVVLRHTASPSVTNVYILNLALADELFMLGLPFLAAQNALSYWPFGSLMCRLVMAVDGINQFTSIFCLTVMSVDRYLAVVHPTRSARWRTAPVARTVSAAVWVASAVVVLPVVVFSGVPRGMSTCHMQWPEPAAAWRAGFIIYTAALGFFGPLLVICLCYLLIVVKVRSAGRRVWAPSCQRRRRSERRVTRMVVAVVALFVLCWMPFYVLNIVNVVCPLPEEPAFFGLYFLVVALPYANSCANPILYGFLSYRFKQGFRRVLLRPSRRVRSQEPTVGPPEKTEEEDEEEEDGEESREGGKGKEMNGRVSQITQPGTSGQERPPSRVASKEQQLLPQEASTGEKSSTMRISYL
Procedure: as §1, §2, §3, §4, §5, §6, §7

hSSTR4 = molecular target: T4, hSSTR4 (Homo sapiens, UniProt P31391); details: Table 3; mean ± SEM when N ≧ 3; read-out: sst4 binding affinity (IC50)
T4 construct: expressed in transfected cells; host or cells: CHO-K1 or CCL39 cells
T4 sequence (P31391 whole entry): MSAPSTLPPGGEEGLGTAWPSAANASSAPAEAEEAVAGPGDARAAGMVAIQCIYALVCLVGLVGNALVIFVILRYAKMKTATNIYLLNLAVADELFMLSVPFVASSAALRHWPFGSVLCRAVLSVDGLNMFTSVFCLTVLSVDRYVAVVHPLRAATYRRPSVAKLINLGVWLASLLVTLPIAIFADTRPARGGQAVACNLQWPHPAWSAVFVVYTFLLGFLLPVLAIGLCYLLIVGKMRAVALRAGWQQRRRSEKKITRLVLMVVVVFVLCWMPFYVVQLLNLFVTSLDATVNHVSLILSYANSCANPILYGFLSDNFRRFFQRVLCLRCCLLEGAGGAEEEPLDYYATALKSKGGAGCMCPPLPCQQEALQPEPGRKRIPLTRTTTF
Procedure: as §1, §2, §3, §4, §5, §6, §7

hSSTR5 = molecular target: T5, hSSTR5 (Homo sapiens, UniProt P35346); details: Table 3; mean ± SEM when N ≧ 3; read-out: sst5 binding affinity (IC50)
T5 construct: expressed in transfected cells; host or cells: CHO-K1 or CCL39 cells
T5 sequence (P35346 whole entry): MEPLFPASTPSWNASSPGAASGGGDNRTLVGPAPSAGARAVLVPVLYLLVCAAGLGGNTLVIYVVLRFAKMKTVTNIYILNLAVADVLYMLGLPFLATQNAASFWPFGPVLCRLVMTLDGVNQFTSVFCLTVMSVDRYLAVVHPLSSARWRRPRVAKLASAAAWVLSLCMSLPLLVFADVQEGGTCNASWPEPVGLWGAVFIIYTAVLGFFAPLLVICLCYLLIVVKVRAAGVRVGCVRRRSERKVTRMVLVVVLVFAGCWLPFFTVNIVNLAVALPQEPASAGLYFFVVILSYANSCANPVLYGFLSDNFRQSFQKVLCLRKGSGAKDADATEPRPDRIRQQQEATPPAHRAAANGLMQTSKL
Procedure: as §1, §2, §3, §4, §5, §6, §7

IC50 (hSSTR1) [nM] | loss of binding affinity for sst2 as compared to 7 (hSSTR2) [fold] | IC50 (hSSTR2) [nM] | IC50 (hSSTR3) [nM] | IC50 (hSSTR4) [nM] | IC50 (hSSTR5) [nM] | SMILES
> 1000 | 10 | 58 ± 21 | 340 ± 77 | 908 ± 138 | 657 ± 299 | CC(C)C[C@@H]1NC(=O)[C@H](NC(=O)[C@@H](N)Cc2ccc(Cl)cc2)CSSC[C@@H](C(=O)N[C@@H](Cc2ccc3ccccc3c2)C(N)=O)NC(=O)[C@H]([C@@H](C)O)NC(=O)[C@H](CCCCN)NC(=O)[C@@H](Cc2c[nH]c3ccccc23)NC1=O [compound 11, H2N-Cpa-c[DCys-Leu-DTrp-Lys-Thr-Cys]-2Nal-NH2] (H-[Phe(4-Cl)][dC]L[dW]KTC[2Nal]-NH2; disulfide 2-7)
> 1000 |  | 52 ± 4.7 | 661 ± 115 | > 1000 | 810 ± 200 | C[C@@H](O)[C@@H]1NC(=O)[C@H](CCCCN)NC(=O)[C@@H](Cc2c[nH]c3ccccc23)NC(=O)[C@H](Cc2ccc(NC(N)=O)cc2)NC(=O)[C@H](NC(=O)[C@@H](N)Cc2ccc(Cl)cc2)CSSC[C@@H](C(=O)N[C@H](Cc2ccc(NC(N)=O)cc2)C(=O)NCC(=O)O)NC1=O [compound 22, H2N-Cpa-c[DCys-Aph(Cbm)-DTrp-Lys-Thr-Cys]-DAph(Cbm)-GlyOH] (H-[Phe(4-Cl)][dC][Phe(4-NHCONH2)][dW]KTC[dPhe(4-NHCONH2)]G-OH; disulfide 2-7)
> 1000 |  | 9.3 ± 0.9 | 157 ± 49 | 883 ± 174 | 313 ± 35 | CONC(=O)Nc1ccc(C[C@@H]2NC(=O)[C@H](NC(=O)[C@@H](N)Cc3ccc(Cl)cc3)CSSC[C@@H](C(=O)N[C@@H](Cc3ccc4ccccc4c3)C(N)=O)NC(=O)[C@H]([C@@H](C)O)NC(=O)[C@H](CCCCN)NC(=O)[C@@H](Cc3c[nH]c4ccccc34)NC2=O)cc1 [compound 23, H2N-Cpa-c[DCys-Aph(CONH—OCH3)-DTrp-Lys-Thr-Cys]-2Nal-NH2]
> 1000 |  | 23 ± 4.3 | 54 ± 15 | 136 ± 7.5 | 111 ± 17 | C[C@@H](O)[C@@H]1NC(=O)[C@H](CCCCN)NC(=O)[C@@H](Cc2c[nH]c3ccccc23)NC(=O)[C@H](Cc2ccc(NC(N)=O)cc2)NC(=O)[C@H](NC(=O)[C@H](Cc2ccc(Cl)cc2)NC(N)=O)CSSC[C@@H](C(=O)N[C@@H](Cc2ccc3ccccc3c2)C(N)=O)NC1=O [compound 13, Cbm-Cpa-c[DCys-Aph(Cbm)-DTrp-Lys-Thr-Cys]-2Nal-NH2] (X1-[dC][Phe(4-NHCONH2)][dW]KTC[2Nal]-NH2; disulfide 1-6)
> 1000 |  | 5.4 | 328 ± 69 | 800 ± 295 | 191 ± 49 | C[C@@H](O)[C@@H]1NC(=O)[C@H](CCCCN)NC(=O)[C@@H](Cc2c[nH]c3ccccc23)NC(=O)[C@H](Cc2ccc(NC(N)=O)cc2)NC(=O)[C@H](NC(=O)[C@@H](N)Cc2ccc(Cl)cc2)CSSC[C@@H](C(=O)N[C@H](Cc2ccc(NC(N)=O)cc2)C(N)=O)NC1=O [compound 20, H2N-Cpa-c[DCys-Aph(Cbm)-DTrp-Lys-Thr-Cys]-DAph(Cbm)-NH2]
> 1000 |  | 9.3 ± 1.4 | 120 ± 45 | 813 ± 152 | 426 ± 189 | C[C@@H](O)[C@@H]1NC(=O)[C@H](CCCCN)NC(=O)[C@@H](Cc2c[nH]c3ccccc23)NC(=O)[C@H](Cc2ccc(NC(=O)NO)cc2)NC(=O)[C@H](NC(=O)[C@@H](N)Cc2ccc(Cl)cc2)CSSC[C@@H](C(=O)N[C@@H](Cc2ccc3ccccc3c2)C(N)=O)NC1=O [compound 24, H2N-Cpa-c[DCys-Aph(CONH—OH)-DTrp-Lys-Thr-Cys]-2Nal-NH2]
